Test results: patent publication US20260217720A1, “COMPOSITIONS USEFUL FOR MODULATING SPLICING” (Skyhawk Therapeutics, Inc., priority 2023, published 2026)

What was measured:
[1] = system: ATXN3 transcripts containing exon 4; experiment: ATXN3 Quantitative Splicing Assay (qPCR, E4E5 primers/probe); assay type: cell-based; settings: Homo sapiens, SK-N-MC cells, 24 h treatment, read-out: ATXN3 Potency - Splicing E4E5 IC50 Mean
Description: Human neuroblastoma SK-N-MC cells were plated in 384-well plates at 20,000 cells/well. Twenty-four hours after plating, cells were treated with compounds for 24 h at appropriate concentrations ranging from 30 μM to 0.6 nM (0.3% DMSO). Treated cells were lysed in 15 μL of lysis buffer, and cDNA was synthesized using the Fast Advanced Cells-to-Ct kit. Two μL of each cDNA was used in qPCR reactions to confirm the exon 4 skipped transcripts of ATXN3. A second set of primers/probe E4E5 was used to detect the transcripts containing exon 4. The third set of primers/probe E8E9 was used to detect total gene level of ATXN3. The qPCR reactions were prepared in 384-well plates in 10 μL volume, using TaqMan™ Fast Advanced Master Mix with primers and probes shown in the table below. Reactions were run in a Quant Studio 6 qPCR instrument with default settings.
The primers and probes are listed below in Table 3.

total ATXN3 protein = experiment: ATXN3 Total Protein Assay (MSD); assay type: cell-based, Human; settings: SK-N-MC cells, 48 hours incubation, read-out: ATXN3 Potency - Protein IC50
Description: Human neuroblastoma SK-N-MC cells were seeded at 10,000 cells/well in 384 well plates one day prior to compound treatment. The concentrations of compounds were tested at appropriate doses ranging from 30 μM to 0.6 nM. After incubation for 48 hours, the cells were lysed with 25 μL of lysis buffer containing protease inhibitors, and total ATXN3 protein levels were assessed by Mesoscale Discovery (MSD) assay developed with one pair of anti-ATXN3 antibodies. The capture and detect antibodies were raised in mouse and rabbit respectively. Anti-rabbit MSD-ST antibody was used for secondary antibody.
ATXN3 recombinant protein was used for standards. The readouts were captured with 35 μL of MSD read buffer and multi-array 384-well high binding plates.

| Structure (SMILES) | IC50 [1] [nM] | IC50 (total ATXN3 protein) [nM] |
| --- | --- | --- |
| Cc1c(C[C@@H](N)CF)cc2c(NCc3cccs3)cc(Cl)nn12 [Compound 5, (R)-6-(2-amino-3-fluoropropyl)-2-chloro-7-methyl-N-(thiophen-2-ylmethyl)pyrrolo[1,2-b]pyridazin-4-amine] | 501 to 5000 | 101 to 500 |
| C[C@H](N)Cc1cc2c(NCc3cccs3)cc(Cl)nn2c1Cl [Compound 2, (S)-6-(2-aminopropyl)-2,7-dichloro-N-(thiophen-2-ylmethyl)pyrrolo[1,2-b]pyridazin-4-amine] | 0.01 to 100 | – |
| N[C@@H](CF)Cc1cc2c(NCc3cccs3)cc(Cl)nn2c1Cl [Compound 10, (R)-6-(2-amino-3-fluoropropyl)-2,7-dichloro-N-(thiophen-2-ylmethyl)pyrrolo[1,2-b]pyridazin-4-amine] | 0.01 to 100 | – |
| Cc1c(C[C@H](C)N)cc2c(NCc3cccs3)cc(Cl)nn12 [Compound 1, (S)-6-(2-aminopropyl)-2-chloro-7-methyl-N-(thiophen-2-ylmethyl)pyrrolo[1,2-b]pyridazin-4-amine] | 101 to 500 | 101 to 500 |
| Cc1c(C[C@@H](N)[C@H](C)F)cc2c(NCc3cccs3)cc(Cl)nn12 [Compound 6, 6-((2R,3S)-2-amino-3-fluorobutyl)-2-chloro-7-methyl-N-(thiophen-2-ylmethyl)pyrrolo[1,2-b]pyridazin-4-amine] | 101 to 500 | 101 to 500 |

Next, values leading:

| IC50 [1] [nM] | IC50 (total ATXN3 protein) [nM] | Structure (SMILES) |
| --- | --- | --- |
| 0.01 to 100 | – | Cc1c(C[C@@H](N)CO)cc2c(NCc3cccs3)cc(Cl)nn12 [Compound 8, (R)-2-amino-3-(2-chloro-7-methyl-4-((thiophen-2-ylmethyl)amino)pyrrolo[1,2-b]pyridazin-6-yl) propan-1-ol] |
| 501 to 5000 | – | COC[C@H](N)Cc1cc2c(NCc3cccs3)cc(Cl)nn2c1C [Compound 3, (R)-6-(2-amino-3-methoxypropyl)-2-chloro-7-methyl-N-(thiophen-2-ylmethyl)pyrrolo[1,2-b]pyridazin-4-amine] |
| 0.01 to 100 | – | N[C@@H](COC(F)F)Cc1cc2c(NCc3cccs3)cc(Cl)nn2c1Cl [Compound 9, (R)-6-(2-amino-3-(difluoromethoxy)propyl)-2,7-dichloro-N-(thiophen-2-ylmethyl)pyrrolo[1,2-b]pyridazin-4-amine] |
| 101 to 500 | – | C[C@H](F)[C@H](N)Cc1cc2c(NCc3cccs3)cc(Cl)nn2c1 [Compound 4, 6-((2R,3S)-2-amino-3-fluorobutyl)-2-chloro-N-(thiophen-2-ylmethyl)pyrrolo[1,2-b]pyridazin-4-amine] |
| 0.01 to 100 | – | C[C@H](F)[C@H](N)Cc1cc2c(NCc3cccs3)cc(Cl)nn2c1Cl [Compound 11] |
| 101 to 500 | – | N[C@@H](CF)Cc1cc2c(NCc3cccs3)cc(Cl)nn2c1 [Compound 7, (R)-6-(2-amino-3-fluoropropyl)-2-chloro-N-(thiophen-2-ylmethyl)pyrrolo[1,2-b]pyridazin-4-amine] |
